# Data reported in patent publication US10301263B2, “Anticonvulsant compound” (Royal Holloway and Bedford New College, priority 2014, dated 2019).
# Key:
# AMPA receptor GluA2/3 = target: T1, AMPA receptor GluA2/3 (Homo sapiens, UniProt P42262+P42263); experiment: Electrophysiology of Xenopus laevis oocytes expressing GluA2/3; format: cell-based; conditions: for reduction of AMPA-R generated current in comparison to decanoic acid / reduction of AMPA-R generated current in comparison to the control / reduction of AMPA-R generated current in comparison to 4-BCCA: GluA2/3, 1 mM; for reduction of AMPA-R generated current in comparison to decanoic acid: P<0.01 for #181, #182, #184, P<0.001 for #176, #185; for reduction of AMPA-R generated current in comparison to the control: P<0.05 for #175, #177, P<0.001 for the others; for reduction of AMPA-R generated current in comparison to 4-BCCA: P<0.05 for #181, #184, P<0.01 for #182, P<0.001 for #176, #185; for inhibition of AMPA receptors (subunit GluA2/3) compared to decanoic acid: dose curve vs decanoic acid
# T1 construct: expressed in transfected cells; host or cells: Xenopus laevis oocytes injected with cRNA
# T1 sequence (P42262 22-883 isoform P42262-2 limits assumed): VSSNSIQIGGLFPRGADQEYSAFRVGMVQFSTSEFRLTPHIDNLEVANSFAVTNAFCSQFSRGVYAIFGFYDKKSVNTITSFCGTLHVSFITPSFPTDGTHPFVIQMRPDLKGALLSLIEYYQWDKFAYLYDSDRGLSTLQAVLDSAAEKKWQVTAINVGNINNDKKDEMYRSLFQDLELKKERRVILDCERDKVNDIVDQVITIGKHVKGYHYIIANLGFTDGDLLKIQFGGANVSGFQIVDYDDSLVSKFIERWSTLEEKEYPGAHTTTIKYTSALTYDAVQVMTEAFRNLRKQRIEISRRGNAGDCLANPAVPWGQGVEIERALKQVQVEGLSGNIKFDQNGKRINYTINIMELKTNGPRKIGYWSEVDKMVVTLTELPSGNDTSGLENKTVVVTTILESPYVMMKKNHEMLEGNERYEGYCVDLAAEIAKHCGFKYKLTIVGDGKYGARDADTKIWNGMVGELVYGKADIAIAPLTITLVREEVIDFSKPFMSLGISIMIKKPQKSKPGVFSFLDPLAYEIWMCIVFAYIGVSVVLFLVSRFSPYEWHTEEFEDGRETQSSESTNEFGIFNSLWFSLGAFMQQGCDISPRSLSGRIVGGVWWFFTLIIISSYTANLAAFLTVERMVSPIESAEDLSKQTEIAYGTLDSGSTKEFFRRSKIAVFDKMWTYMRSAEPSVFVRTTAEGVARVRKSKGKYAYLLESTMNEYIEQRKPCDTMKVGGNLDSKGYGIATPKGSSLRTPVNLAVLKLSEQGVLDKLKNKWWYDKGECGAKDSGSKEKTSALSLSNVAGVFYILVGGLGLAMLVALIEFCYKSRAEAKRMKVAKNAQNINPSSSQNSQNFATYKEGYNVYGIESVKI
# T1 sequence (P42263 29-894 isoform P42263-2 limits assumed): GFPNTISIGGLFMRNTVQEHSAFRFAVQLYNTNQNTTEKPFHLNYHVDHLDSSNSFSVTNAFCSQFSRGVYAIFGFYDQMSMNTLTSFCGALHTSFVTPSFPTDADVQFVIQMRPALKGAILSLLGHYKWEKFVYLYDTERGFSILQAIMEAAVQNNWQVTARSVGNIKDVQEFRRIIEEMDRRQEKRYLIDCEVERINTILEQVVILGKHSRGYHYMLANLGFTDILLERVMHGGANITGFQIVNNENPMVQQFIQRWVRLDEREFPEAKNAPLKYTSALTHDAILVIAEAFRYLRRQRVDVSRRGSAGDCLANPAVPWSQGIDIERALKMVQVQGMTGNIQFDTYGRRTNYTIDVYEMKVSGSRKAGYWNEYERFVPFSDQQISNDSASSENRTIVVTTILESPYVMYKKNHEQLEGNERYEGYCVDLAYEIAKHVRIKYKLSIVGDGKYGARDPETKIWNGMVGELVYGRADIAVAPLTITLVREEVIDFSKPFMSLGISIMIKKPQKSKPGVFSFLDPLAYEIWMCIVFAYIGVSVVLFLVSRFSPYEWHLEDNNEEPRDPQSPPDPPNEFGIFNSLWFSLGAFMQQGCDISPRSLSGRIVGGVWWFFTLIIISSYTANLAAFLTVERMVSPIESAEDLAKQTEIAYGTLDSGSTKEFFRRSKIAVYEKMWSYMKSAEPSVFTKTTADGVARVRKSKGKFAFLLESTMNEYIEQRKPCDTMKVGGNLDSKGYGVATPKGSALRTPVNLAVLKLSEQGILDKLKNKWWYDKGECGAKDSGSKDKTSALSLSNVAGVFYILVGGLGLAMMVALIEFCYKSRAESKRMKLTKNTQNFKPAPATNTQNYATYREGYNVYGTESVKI
# Procedure: (§1) The AMPA receptor (flip isoform) cDNAs inserted in a SP6 polymerase expression vector (pSP6T) were a generous gift from Prof Ralf Schoepfer (NPP, UCL). RNA was transcribed in vitro from Mlu I linearized transcripts using the SP6 Promega RiboMax RNA synthesis kit (Madison, Wis.) according to manufacturer's protocols except for the addition of 0.75 mM capping nucleotide m7G(5′)ppp(5′)G (Promega, Madison, Wis.) and 1.6 mM GTP. cRNA concentrations and integrity were estimated by the intensity of fluorescence bands in RNA denaturating gels. AMPA receptor cRNAs were mixed in a nominal 1:1 ratio and approximately 5 ng was injected per oocyte.
# Xenopus laevis oocytes were purchased from the European Xenopus Resource Centre, University of Portsmouth. Stage V to VI oocytes were mechanically dissected and then subjected to gentle shaking for approximately 30-50 min at room temperature with modified Barth's solution (in mM): NaCl 88, KCl 1, NaHCO3 2.4, MgCl2 0.82, CaCl2 0.77, Tris-Cl 15, adjusted to pH 7.4 with NaOH (Sigma-Aldrich, UK), supplemented with 50 IU/ml penicillin and 50 μg/ml streptomycin (Invitrogen, UK) and 50 μg/ml tetracycline (Sigma-Aldrich, UK) and 1% collagenase (type 1A). Healthy oocytes were manually defolliculated and the injections of cRNA for homomeric subunits alone (GluA1), or heteromeric mixtures of two subunits together (GluA2/GluA3) were made using an automated Drummond Nanoinject II injector (Broomall, Pa.). The oocytes were then incubated at 17° C. in modified Barth's solution for at least 48 hours before use in electrophysiological recordings.
# Experiments were performed at room temperature (approximately 21-23° C.). An oocyte was placed in a recording chamber (0.3-0.5 ml volume) and perfused with ND96 solution (96 mM NaCl, 2 mM KCl, 1.8 mM CaCl2, 1 mM MgCl2, 5 mM HEPES, with pH adjusted to 7.5). Current and voltage electrodes were filled with 300 mM KCl and made from thin-walled borosilicate glass (GC150TF-7.5, Harvard Apparatus, Kent, UK) using a PC-10 electrode puller (Narashige Instruments, Japan) and had resistances of 0.5-2 MΩ. Oocytes were voltage-clamped to a holding potential of −50 mV or −60 mV using a Turbo TEC-03 amplifier (npi electronics, Tamm, Germany). Compounds were dissolved in distilled water or DMSO and dissolved in bathing solution to achieve their final concentrations during experiments, and were applied under gravity flow during the experiment by using a multi-valve perfusion system (VC3-8C, ALA Scientific Instruments, Farmingdale, N.Y.). The bath solutions were perfused at a rate of 10 ml/min. Recordings were filtered at 20 Hz and digitized at 100 Hz (Digidata 1322A, Molecular Devices, Sunnyvale, Calif.) before recording to computer hard disk. Data acquisition was performed using the Windows PC based programme, WinEDR v3.0.6 (John Dempster, University of Strathclyde, UK).
# The data from the electrophysiology experiments were analyzed using GraphPad Prism software (GraphPad software, San Diego Calif., USA) and SPSS (IBM United Kingdom Limited). Statistical analysis was performed using ANOVA with Dunnett's or Tukey post hoc test, pair t-test or un-pair t-test. For the behavior experiment, the nonparametric test, Mann-Whitney test were used. Differences were considered as significant at P<0.05. […]
# AMPA receptor GluA1/2 = target: T2, AMPA receptor GluA1/2 (Homo sapiens, UniProt P42261+P42262); experiment: Electrophysiology of Xenopus laevis oocytes expressing GluA1/2; format: cell-based; conditions: IC50 comparison, FIG. 2C
# T2 construct: expressed in transfected cells; host or cells: Xenopus laevis oocytes injected with cRNA
# T2 sequence (P42261 19-906 isoform P42261-2 limits assumed): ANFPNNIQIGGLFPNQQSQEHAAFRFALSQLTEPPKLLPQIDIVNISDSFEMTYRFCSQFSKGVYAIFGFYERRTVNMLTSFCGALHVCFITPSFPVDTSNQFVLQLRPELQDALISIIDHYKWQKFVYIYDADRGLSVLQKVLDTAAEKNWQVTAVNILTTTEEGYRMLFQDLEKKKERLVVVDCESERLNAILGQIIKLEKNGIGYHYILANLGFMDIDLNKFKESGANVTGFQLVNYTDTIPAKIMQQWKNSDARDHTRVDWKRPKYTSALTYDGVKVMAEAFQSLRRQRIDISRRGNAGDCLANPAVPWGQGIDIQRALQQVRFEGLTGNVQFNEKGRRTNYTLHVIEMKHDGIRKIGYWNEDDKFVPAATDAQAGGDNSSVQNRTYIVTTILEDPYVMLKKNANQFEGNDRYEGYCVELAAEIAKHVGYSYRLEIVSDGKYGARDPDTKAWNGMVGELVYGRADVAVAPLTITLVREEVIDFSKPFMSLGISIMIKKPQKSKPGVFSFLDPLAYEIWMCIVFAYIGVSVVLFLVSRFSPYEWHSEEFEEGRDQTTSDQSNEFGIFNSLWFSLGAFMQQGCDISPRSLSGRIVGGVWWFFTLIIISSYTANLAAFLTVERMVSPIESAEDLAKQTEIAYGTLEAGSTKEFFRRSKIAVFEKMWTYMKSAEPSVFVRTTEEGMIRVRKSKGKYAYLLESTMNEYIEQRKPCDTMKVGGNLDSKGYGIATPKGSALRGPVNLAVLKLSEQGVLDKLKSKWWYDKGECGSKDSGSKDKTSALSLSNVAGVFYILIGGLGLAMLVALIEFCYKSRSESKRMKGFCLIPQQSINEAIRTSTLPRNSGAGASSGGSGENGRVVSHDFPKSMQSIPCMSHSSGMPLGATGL
# T2 sequence (P42262 22-883 isoform P42262-2 limits assumed): as the sequence (P42262 22-883 isoform P42262-2 limits assumed) above
# Procedure: as §1
# Xenopus laevis oocytes were purchased from the European Xenopus Resource Centre, University of Portsmouth. Stage V to VI oocytes were mechanically dissected and then subjected to gentle shaking for approximately 30-50 min at room temperature with modified Barth's solution (in mM): NaCl 88, KCl 1, NaHCO3 2.4, MgCl2 0.82, CaCl2 0.77, Tris-Cl 15, adjusted to pH 7.4 with NaOH (Sigma-Aldrich, UK), supplemented with 50 IU/ml penicillin and 50 μg/ml streptomycin (Invitrogen, UK) and 50 μg/ml tetracycline (Sigma-Aldrich, UK) and 1% collagenase (type 1A). […]
# The data from the electrophysiology experiments were analyzed using GraphPad Prism software (GraphPad software, San Diego Calif., USA) and SPSS (IBM United Kingdom Limited). […]
reduction of AMPA-R generated current in comparison to decanoic acid (AMPA receptor GluA2/3),reduction of AMPA-R generated current in comparison to the control (AMPA receptor GluA2/3),reduction of AMPA-R generated current in comparison to 4-BCCA (AMPA receptor GluA2/3),inhibition of AMPA receptors (subunit GluA2/3) compared to decanoic acid (AMPA receptor GluA2/3),inhibitory effect on AMPA receptors consisting of GluA1/2 subunits compared to decanoic acid (AMPA receptor GluA1/2),Compound
significant reduction,significant reduction,significant reduction,–,–,"CCC(C)CCC1CCC(CC(=O)O)CC1 (stereo not shown) [compound 176, [4-(3-methylpentyl)cyclohexyl]acetic acid]"
–,–,–,more potent inhibition,enhanced inhibitory effect,"CCCCCC1CCC(CC(=O)O)CC1 (racemic) [Compound 4-PCEA, 2-(4-pentylcyclohexyl)ethanoic acid]"
–,significant reduction,–,–,–,"CC(C)CCCC1CCC(CC(=O)O)CC1 (stereo not shown) [compound 172, [4-(4-methylpentyl)cyclohexyl]acetic acid]"
significant reduction,significant reduction,significant reduction,–,–,"CCCC(C)CC1CCC(CC(=O)O)CC1 (stereo not shown) [compound 185, [4-(2-methylpentyl)cyclohexyl]acetic acid]"
significant reduction,significant reduction,significant reduction,–,–,"CC(C)CCC1CCC(C(=O)O)CC1 (stereo not shown) [compound 181, 4-(3-methylbutyl)cyclohexanecarboxylic acid]"

# More lines, now with the values behind:
Compound,reduction of AMPA-R generated current in comparison to decanoic acid (AMPA receptor GluA2/3),reduction of AMPA-R generated current in comparison to the control (AMPA receptor GluA2/3),reduction of AMPA-R generated current in comparison to 4-BCCA (AMPA receptor GluA2/3),inhibition of AMPA receptors (subunit GluA2/3) compared to decanoic acid (AMPA receptor GluA2/3),inhibitory effect on AMPA receptors consisting of GluA1/2 subunits compared to decanoic acid (AMPA receptor GluA1/2)
"CCCCC=C1CCC(CC(=O)O)CC1 (stereo not shown) [compound 182, (4-pentylidenecyclohexyl)acetic acid]",significant reduction,significant reduction,significant reduction,–,–
"CCOCC1CCC(C(=O)O)CC1 (stereo not shown) [compound 177, 4-(ethoxymethyl)cyclohexancarboxylic acid]",–,significant reduction,–,–,–
"CCCCC1CCC(C(=O)O)NC1 (stereo not shown) [compound 178, 5-butylpiperidine-2-carboxylic acid]",–,significant reduction,–,–,–
"CCCCCc1ccc(CC(=O)O)cc1 [Compound 4-PPEA, 4-pentylphenylethanoic acid]",–,–,–,more potent inhibition,–
"CC/C=C/C1CCC(C(=O)O)CC1 (stereo not shown) [compound 174, 4-[(1E)-but-1-en-1-yl]cyclohexanecarboxylic acid]",–,significant reduction,–,–,–
"CCCOCC1CCC(CC(=O)O)CC1 (stereo not shown) [compound 175, 4-(propoxymethyl)cyclohexyl acetic acid]",–,significant reduction,–,–,–
"CCCOC1CCC(C(=O)O)CC1 (stereo not shown) [compound 180, 4-propoxycyclohexanecarboxylic acid]",–,significant reduction,–,–,–
"CCNCC1CCC(CC(=O)O)CC1 (stereo not shown) [compound 179, {4-[(ethylamino)methyl]cyclohexyl}acetic acid]",–,significant reduction,–,–,–
"CCC(C)CC1CCC(C(=O)O)CC1 (stereo not shown) [compound 184, 4-(2-methylbutyl)cyclohexanecarboxylic acid]",significant reduction,significant reduction,significant reduction,–,–
